Laboratory results reported in patent US20110039809A1 (priority 2008, published 2011).

What was measured:
[1] = cited from earlier work
deoxypyridinoline (DPD) = assay: Clinical trial: bone resorption marker deoxypyridinoline (DPD), urine marker; format: in vivo, human; conditions: for DPD, GLM least square mean after 4 months: daily 20 μg or weekly 140 μg oral, adjusted for baseline, age, body mass index, postmenopausal women
Text: (§1) Each group included five subjects.
(§2) Equimolar quantities of both substances were investigated.
(§3) Each dosage was consumed orally at breakfast.
(§4) Treatment duration was 4 months.

[2] = test system: bone-specific alkaline phosphatase (BAP); assay: Clinical trial: bone-specific alkaline phosphatase (BAP), serum marker; format: in vivo, human; conditions: for BAP, GLM least square mean after 4 months: daily 20 μg or weekly 140 μg oral, adjusted for baseline, age, body mass index, postmenopausal women
Text: as §1, §2, §3, §4

[3] = Clinical trial: plasma 25-OH D after single oral bolus (pharmacokinetics); conditions: single oral dose 140 μg of each active
Protocol: Subjects were randomly assigned to one of […] treatment groups (i.e., daily, weekly, bolus as single dose, and bolus as combination dose). Each group included five subjects. They are followed for four months in Zürich, Switzerland during the winter.
Equimolar quantities of both substances were investigated. The regimen was based on 20 μg/day (or its equivalent on a weekly basis) of 25-OH D3.
Each dosage was consumed orally at breakfast. The duration of the study was four months for the “Daily” and “Weekly” groups. Subjects enrolled in the “Bolus” group consumed orally a single dosage at the second study visit.
Plasma concentrations of 25-OH D3 (e.g., peak and steady state) were determined by obtaining samples from the subjects at various times after the dosage was ingested. […] The assessments continued on Monday of Weeks 3, 5, 7, 9, 11, 13 and 15.

[4] = daily 20 μg or weekly 140 μg, 4 months, repeated measurement analysis over 13 visits
[5] = daily or weekly treatment, identical dosages, 4 months

Compound	DPD, GLM least square mean after 4 months (deoxypyridinoline (DPD)) [nmol/mmol creatine]	BAP, GLM least square mean after 4 months [2] [IU/L]	Time span with increase in plasma 25-OH D levels by at least 30 nmol/L [3]	also measured
25-hydroxyvitamin D				Blood concentration above which hypercalcemia may occur ([1]; in vivo): greater than 375 nmol/L
C=C1CC[C@H](O)C/C1=C/C=C1\CCC[C@]2(C)[C@@H]([C@H](C)CCCC(C)(C)O)CC[C@@H]12 [25-OH D3, 25-hydroxyvitamin D3]	8.2	74.7	4 to 49 h	DPD change vs. Daily/weekly Vitamin D3 (deoxypyridinoline (DPD); [4]): −17.0%; Reduction of DPD versus Vitamin D3 (deoxypyridinoline (DPD); [5]): 17.0%; BAP change vs. Daily/weekly Vitamin D3 [2, 4]: −2.4%; Reduction of BAP versus Vitamin D3 [2, 5]: 2.4%
C=C1CC[C@H](O)C/C1=C/C=C1\CCC[C@]2(C)[C@@H]([C@H](C)CCCC(C)C)CC[C@@H]12 [Vitamin D3, cholecalciferol]	9.8	76.5	no increase of that magnitude was observed	
Vitamin D				Blood concentration of 25-hydroxyvitamin D after ingestion of the safe upper level as dietary supplement ([1]; 250 μg/day vitamin D): about 200 nmol/L
